Assays:
[1] = tested on: neovascularization induced in vivo by FGF-2; assay: Chick embryo chorioallantoic membrane (CAM) assay, neovascularization induced by FGF-2; conditions: gelatin sponge, FGF-2 500 ng/sponge, PTX3 5 ug/sponge, scored after 4 days
Procedure: The antiangiogenic potential of PTX3 was evaluated in vivo in the chick embryo chorioallantoic membrane (CAM) assay. Briefly, a window was opened in the egg shell of 3 day-old fertilized chicken eggs. At day 8, gelatin sponges were implanted on the CAMs and adsorbed with 10 ul of PBS alone or containing FGF-2 (at 500 ng/sponge) in the absence or in the presence of PTX3 (5 ug/sponge) (5-6 embryos per group).

[2] = biological target: T1, FGF-2 (Homo sapiens, UniProt P09038); assay: Capacity of PTX3 to bind FGF in solution (Superose 12 size exclusion chromatography, dot-blot); format: binding; conditions: FGF-2 pre-incubated with PTX3 10 min at 4° C., Superose 12 column
T1 construct: made in house
Procedure: This experiment has been performed in order to evaluate PTX3 binding to FGF-2. PTX3 has been produced as described by Bottazzi et al., 1997, J. Biol. Chem. 272:32817-32823. Human recombinant FGF-2 has been produced as described by Isacchi A. et al., Proc. Natl. Acad. Sci. U.S.A. (1991), 88:2628-32. When necessary, FGF-2 has been labelled with ^125I following the method described by Isacchi et al. (see below).
100 μl of PBS containing 1 μg of FGF-2, (or alternatively 1 μg of PTX3) were chromatographed on a size exclusion fast protein liquid chromatography Superose 12 column (Pharmacia): this column is able to separate proteins depending on their molecular weight. The column was eluted with PBS at a flow rate equal to 1 ml/minute and 1 ml fractions were collected and analyzed by dot, blot with specific antibodies for the two proteins. In order to evaluate PTX3 binding to FGF-2 the two proteins ([…] and 1 μg, respectively), were mixed in 100 μl PBS and incubated at 4° C. for 10 min. before loading onto the column. Fractions were collected and analysed by dot-blot with anti FGF-2 specific antibodies. […] In the same conditions PTX3 (450.000 D) is eluted with the void volume of the column (7 ml.) When FGF-2 pre-incubated with PTX3 for.

[3] = tested on: FGF2MAE3F2T cells; assay: Proliferation of FGF2MAE3F2T clones over-expressing PTX3; format: cell-based, murine; conditions: clones transfected with human PTX3 full length cDNA (pLXSH) vs parental cells, 0.4% FCS
Procedure: Murine endothelial cells overexpressing FGF-2, named FGF2MAE3F2T (Gualandris et al. 1996, Cell Growth Diff. 7:147-60) were transfected with human PTX3 full length cDNA subcloned in the commercial expression vector pLXSH (Clontech).
In vitro studies on the transfected cell lines obtained were, performed to study the effect of PTX3 over-expression on FGF-2-dependent proliferation of FGF2MAE3F2T cells and their invasive behaviour on three-dimensional fibrin gels.
After 24 h at 37° C., adherent cells were washed twice with DMEM without FCS and incubated for different period of time at 37° C. in DMEM containing 0.4% FCS. At the end of incubations cells were trypsinized and counted in a Burker chamber.

[4] = tested on: MAE3F2T cells; assay: Effect on FGF-2 dependent autocrine proliferation of MAE3F2T cells; format: cell-based, murine; conditions: 72 h in 0.4% FCS; PTX3 70 nM, suramin 50 μg/ml, anti FGF-2 antibodies; cell counting
Procedure: In this experiment we have investigated the effect of PTX3 on the proliferation of the murine aortic endothelial cell line MAE3F2T stably transfected with an expression vector coding for FGF-2 (Gualandris et al. 1996, Cell Growth Diff. 7:147-60). These cells can proliferate in response to a autocrine loop of stimulation induced by endogenous FGF-2 (Gualandris et al. 1996, Cell Growth Diff. 7:14760). MAE3F2T cells were seeded at 10,000/cm^2 in 48-well plates in Dulbecco medium (DMEM) added with 10% FCS. After 24 h at 37° C., adherent cells were washed twice with DMEM without FCS and incubated for 72 at 37° C. in DMEM containing 0.4% FCS in the presence or not of PTX3 (70 nM), anti FGF-2 specific antibodies or suramin (50 μg/ml). Suramin is known for its capacity to sequestrate extracellular FGF-2 and inhibits its biological activities (Rusnati et al., 1996, Mol. Biol. Cell. 7:369-381). At the end of incubation cells were trypsinized and counted in a Burker chamber.

[5] = tested on: high affinity receptors (FGFR) on GM7373 cells; assay: Effect of PTX3 on 125I-FGF-2 binding to high affinity receptors on endothelial cells; format: cell-based, bovine; conditions: 125I-FGF-2 10 ng/ml, 2 h at 4° C., increasing concentrations of PTX3
Procedure: (§1) Transformed foetal bovine aortic endothelial cells GM7373 were seeded at 80,000 cells/cm^2 in 24-well dishes in Eagle's minimal essential medium (Eagle's MEM) containing 10% FCS. After 24 h at 37° C. adherent cells were washed twice with Eagle's MEM without FCS and subsequently incubated for 2 h at 4° C. with ^125I-FGF-2 (10 ng/ml) in Eagle's MEM containing 0.15% gelatine and 20 mM HEPES pH 7.5 in the absence or in the presence of increasing concentrations of PTX3. At the end of incubation the amount of ^125I-FGF-2 bound to low (HSPGs) and high affinity receptors (FGFR) was evaluated as described by Moscatelli, 1987 J. Cell. Physiol. 131:123-30. Briefly cells were rinsed twice with 2 M NaCl in 20 mM HEPES buffer (pH 7.5) to remove ^125I-FGF-2 bound to low-affinity binding sites and twice with 2 M NaCl in 20 mM sodium acetate (pH 4.0) to remove ^125I-FGF-2 bound to high-affinity binding sites. Non-specific binding was measured in the presence of a 100-fold molar excess of unlabeled FGF-2 and subtracted from all the values.

[6] = tested on: low affinity receptors (HSPGs) on GM7373 cells; assay: Effect of PTX3 on 125I-FGF-2 binding to low affinity receptors on endothelial cells; format: cell-based, bovine; conditions: 125I-FGF-2 10 ng/ml, 2 h at 4° C., increasing concentrations of PTX3
Procedure: as §1

[7] = biological target: T1, FGF-2; assay: 125I-FGF-2 binding to plastic immobilised proteins; conditions: wells coated with 200 nM PTX3 or CRP or 2 μg/ml control proteins; 30 ng 125I-FGF-2, 2 h room temperature
Procedure: 96 wells plates were coated at 4° C. with 100 μl of NaHCO3 pH 9.6 containing PTX3 or C reactive protein (200 nM) or alternatively 2 μg/ml of the following proteins used as negative control: bovine serum albumin, fibronectin, gelatine or laminin. After incubation, wells were washed 3 times with PBS and blocked 2 h at room temperature with 200 μl of 1 mg/ml of BSA in PBS. At the end of incubation wells were washed 3 times with PBS and subsequently incubated with 30 ng of ^125I-FGF-2 for 2 h at room temperature. Wells were subsequently washed 3 times with PBS and bound ^125I-FGF-2 was recovered by washing each well twice with 200 μl of 2% SDS in water. Levels of ^125I-FGF-2 were measured in a gamma counter.

T1 sequence (P09038 134-288): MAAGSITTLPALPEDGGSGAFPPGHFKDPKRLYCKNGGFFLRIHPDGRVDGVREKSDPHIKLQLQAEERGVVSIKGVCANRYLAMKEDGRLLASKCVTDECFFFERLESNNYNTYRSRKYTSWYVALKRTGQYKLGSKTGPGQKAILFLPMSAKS

PTX3: long pentraxin PTX3; preferred is human PTX3, sequence described in WO99/32516; produced as by Bottazzi et al. 1997
effect on neovascularization induced in vivo by FGF-2 (angiogenic response score 0-4+) [1]: able to block the neovascularization | binding of PTX3 to FGF-2 in solution (change of FGF-2 chromatographic behaviour) [2]: FGF-2 was eluted from the column with a retention volume equal to PTX3 alone | effect of PTX3 over-expression on FGF2MAE3F2T cells proliferation [3]: inhibits FGF2MAE3F2T cells proliferation | inhibition of FGF-2 dependent proliferation of MAE3F2T cells [4]: inhibiting their FGF-2 dependent proliferation | inhibition of FGF-2 binding to high-affinity receptors on endothelial cells [5]: able to inhibit in a dose-dependent manner | inhibition of FGF-2 binding to low-affinity receptors on endothelial cells [6]: able to inhibit in a dose-dependent manner | binding of 125I-FGF-2 to plastic immobilised protein [7]: FGF-2 binds plastic immobilised PTX3

— patent US7858577B2, “Use of the long pentraxin PTX3 for the treatment of diseases caused by an altered activation of the growth factor FGF-2” (Sigma-Tau Industrie Farmaceutiche Riunite S.p.A., priority 2000, dated 2010)
